Assay results published in patent publication EP0318859A2, “N-substituted mercaptopropanamide derivatives” (Dainippon Pharmaceutical Co., Ltd., priority 1987, dated 1989).

Key:
Female Std:ddy mice = assay: Analgesic activity (mouse phenylquinone writhing test); format: in vivo; settings: po, 30 minutes before i.p. phenylquinone, reduction in writhes greater than 50 % of vehicle control = effective, Litchfield and Wilcoxon, read-out: ED₅₀
Protocol: (1) Analgesic activity (mouse phenylquinone writhing test)
Female Std:ddy mice (weighing 18 - 22 g) were used. Each animal was given intraperitoneally 10 ml/kg of 0.03 % phenylquinone in 5 % aqueous ethanol, and the number of writhes was counted for 15 minutes, beginning 5 minutes after the injection of phenylquinone. Test compounds, suspended or dissolved in 0.5 % gum tragacanth aqueous solution, were given orally 30 minutes before the injection of phenylquinone. A reduction in writhes counts greater than 50 % of the vehicle control value was considered to be effective. The ED₅₀-value was calculated from the effective rate according to the method of Litchfield and Wilcoxon.

enkephalinase [1] = biological target: T1, enkephalinase (Rattus norvegicus, UniProt P07861); assay: Enkephalinase inhibitory activity in vitro ([³H]-leucine-enkephalin degradation); format: biochemical, rats; settings: rat striatum enkephalinase; substrate [³H]-leucine-enkephalin 20 nM; 1 hour at 37°C; read-out: IC₅₀
T1 construct: Male Std:Wistar rats were decapitated and the striata were removed; from tissue; host or cells: rat striatum (membrane pellet, solubilised with 1 % Triton X-100, DEAE-cellulose fraction)
T1 sequence (P07861 1-750): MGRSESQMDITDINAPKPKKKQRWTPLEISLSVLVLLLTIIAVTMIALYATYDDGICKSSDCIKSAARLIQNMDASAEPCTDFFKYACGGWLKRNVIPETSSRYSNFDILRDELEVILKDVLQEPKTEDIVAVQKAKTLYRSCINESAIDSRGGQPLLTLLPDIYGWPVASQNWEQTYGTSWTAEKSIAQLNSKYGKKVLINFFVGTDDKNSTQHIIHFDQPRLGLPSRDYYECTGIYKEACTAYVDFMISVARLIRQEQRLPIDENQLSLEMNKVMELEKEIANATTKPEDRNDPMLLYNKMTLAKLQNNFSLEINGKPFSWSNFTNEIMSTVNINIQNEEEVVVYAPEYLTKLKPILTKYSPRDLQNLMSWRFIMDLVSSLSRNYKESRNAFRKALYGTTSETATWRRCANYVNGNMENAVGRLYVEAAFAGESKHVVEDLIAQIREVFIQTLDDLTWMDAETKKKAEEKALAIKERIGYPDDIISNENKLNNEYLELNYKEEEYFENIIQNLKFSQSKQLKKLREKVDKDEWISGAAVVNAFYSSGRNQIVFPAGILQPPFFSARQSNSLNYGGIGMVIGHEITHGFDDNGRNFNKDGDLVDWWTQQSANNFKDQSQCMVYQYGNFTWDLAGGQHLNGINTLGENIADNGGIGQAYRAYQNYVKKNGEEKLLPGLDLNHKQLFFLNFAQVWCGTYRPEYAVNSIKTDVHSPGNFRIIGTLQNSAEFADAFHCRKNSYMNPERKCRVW
Protocol: (3) Enkephalinase inhibitory activity in vitro
Enkephalin degrading enzymes were separated according to the method described by Gorenstein and Snyder (Life Science, 25, 2065 (1979)).
Male Std:Wistar rats were decapitated and the striata were removed. These were homogenized in 30 volumes of 50 mM Tris-HCl buffer (pH 7.4) and centrifuged for 15 minutes at 1,000 x g. The supernatant was centrifuged for 15 minutes at 50,000 x g. The pellet was washed three times with the same buffer and then suspended in 15 volumes of 50 mM Tris-HCl buffer (pH 7.4) containing 1 % Triton X-100, followed by incubation for 45 minutes at 37°C. After centrifugation for 1 hour at 100,000 x g, the supernatant was applied onto DEAE-cellulose ion exchange chromatography column. The fraction containing enkephalin dipeptidylcarboxypeptidase was used as enkephalinase sample.
(ii) Measurement of inhibitory activity
After preincubation of test compound and enkephalinase for 5 minutes at 37°C, [³H]-leucine-enkephalin (substrate) was added to the reaction mixture and then the mixture was incubated for 1 hour at 37°C (final volume: 100 µl, final concentration of substarate: 20 nM). Ice-cold 0.2N HCl was added to the mixture to stop the reaction. Substrate and metabolites were separated with TLC and Porapak Q® column by the method of Vogel and Alstein [FEBS Letters, 80, 332 (1977)]. Enzyme activity was estimated from the production rate of [³H]-Tyr-Gly-Gly. The IC₅₀-value of test compounds was calculated from the inhibitory rates, estimated from the difference between the enzyme activities in the absence and the presence of test compound.

enkephalinase [2] = assay: Enkephalinase inhibitory activity in vivo (potentiation of the analgesic activity of DAME, tail pressure pain); settings: p.o., 30 minutes before intracisternal DAME; pressure pain threshold measured 5 minutes after DAME; male Std:ddy mice
Protocol: (2) Enkephalinase inhibitory activity in vivo
(Potentiation of the analgesic activity of DAME)
Pressure pain was induced by pressing the tail of male Std:ddy mice (weighing 20 - 26 g) using an apparatus for pressure measurement. The pressure pain threshold (biting response) was measured as mm. Test compound, dissolved or suspended in 0.5 % gum tragacanth aqueous solution, was given orally 30 minutes before intracisternaly administration of D-Ala²-Met⁵-enkephalin (DAME). Five minutes after administration of DAME, the pressure pain threshold was measured, and the potentiation activity of test compounds on the analgesic effect of DAME was tested.

IC50 (enkephalinase [1]) | Compound | ED50 (Female Std:ddy mice) | ED₅₀ (enkephalinase [2])
– | CC(=O)SCC(CC(C)C)C(=O)Nc1cccc(C(=O)O)c1C (stereo not shown) [Example 175, 3-[(2-acetylthiomethyl-4-methylpentanoyl)amino]-2-methylbenzoic acid] | 21.1 mg/kg | –
– | O=C(O)CNC(=O)C(CS)Cc1ccccc1 (stereo not shown) [Thiorphan, [(D,L)-2-mercaptomethyl-3-phenylpropionyl]glycine, reference compound] | 137 mg/kg | –
7.8 nM | Cc1c(NC(=O)C(CS)CC(C)C)cccc1C(=O)O (stereo not shown) [Example 187, 3-[(2-mercaptomethyl-4-methylpentanoyl)amino]-2-methylbenzoic acid] | 20.1 mg/kg | –
– | CC(=O)SCC(CC(C)C)C(=O)Nc1cc(C)cc(C(=O)O)c1 (stereo not shown) [Example 176, 3-[(2-acetylthiomethyl-4-methylpentanoyl)amino]-5-methylbenzoic acid] | 22.9 mg/kg | –
– | CCc1cc(NC(=O)C(CSC(C)=O)Cc2ccccc2)cc(C(=O)O)c1 (stereo not shown) [Example 64, 3-[(2-acetylthiomethyl-3-phenylpropionyl)amino]-5-ethylbenzoic acid] | 11 mg/kg | 20.8 mg/kg
8.4 nM | CC(C)CC(CS)C(=O)Nc1cccc(C(=O)O)c1 (stereo not shown) [Example 186, 3-[(2-mercaptomethyl-4-methylpentanoyl)amino]benzoic acid] | 15 mg/kg | –
– | CC(=O)SCC(Cc1ccccc1)C(=O)Nc1cccc(C(=O)O)c1C (stereo not shown) [Example 3, 3-[(2-acetylthiomethyl-3-phenylpropionyl)amino]-2-methylbenzoic acid] | 21.6 mg/kg | –
5.4 nM | Cc1cc(NC(=O)C(CS)Cc2ccccc2)cc(C(=O)O)c1 (stereo not shown) [Example 2, 3-[(2-mercaptomethyl-3-phenylpropionyl)amino]-5-methylbenzoic acid] | 16.6 mg/kg | 20.2 mg/kg
– | CC(=O)SCC(Cc1ccccc1)C(=O)Nc1cc(C)cc(C(=O)O)c1 (stereo not shown) [Example 1, 3-[(2-acetylthiomethyl-3-phenylpropionyl)amino]-5-methylbenzoic acid] | 22.3 mg/kg | –
7.5 nM | Cc1c(NC(=O)C(CS)Cc2ccccc2)cccc1C(=O)O (stereo not shown) [Example 7, 3-[(2-mercaptomethyl-3-phenylpropionyl)amino]-2-methylbenzoic acid] | 17.9 mg/kg | 38.3 mg/kg
4.6 nM | CCc1cc(NC(=O)C(CS)Cc2ccccc2)cc(C(=O)O)c1 (stereo not shown) [Example 65, 3-[(2-mercaptomethyl-3-phenylpropionyl)amino]-5-ethylbenzoic acid] | 22.9 mg/kg | –
